Tested on: Plasmodium falciparum
Experiment: GSK_TCMDC: Inhibition of Plasmodium falciparum 3D7 in whole erythrocytes, using parasite LDH activity as an index of growth.
Type: functional, organism-based
Conditions: Plasmodium falciparum, 3D7

SMILES	XC50
CCN(CC)CCN(Cc1ccc(-c2ccc(C(F)(F)F)cc2)cc1)C(=O)Cn1c(SCc2ccc(F)c(F)c2F)nc(=O)c2c1CCC2	1020 nM
O=C(C=Cc1ccc(Cl)c(Cl)c1)NCCCCCN1CCC(CCNC(=O)/C=C/c2ccccc2)CC1	783 nM
CC[C@H]1CN2CC[C@H]1C[C@H]2[C@H](O)c1cc(/C=C/c2ccccc2)nc2ccc(OC)cc12	42.7 nM
CCCCCN1CCC(NS(=O)(=O)c2cccc(C(=O)Nc3cccc(C(F)(F)F)c3)c2)C1 (stereo not given)	826 nM
Cc1c(-c2cccc(Br)c2)[nH]c2nc(N)nc(N)c12	743 nM
Cc1cc(N(C)C)nc(Nc2ccc(NC(=O)c3cccc(F)c3)cc2)n1	998 nM
COCCNCc1ccc(-c2cccc(CNC3CCN(Cc4ccccc4)CC3)c2)cc1	333 nM
CCc1ccc(NC(=O)c2cccc(CN3CCCN(Cc4ccc(OC)cc4)CC3)c2)cc1	919 nM
CC1CCc2sc(-c3nnc(SC(C)C(=O)NC4CC4)o3)cc2C1 (stereo not given)	1210 nM
Cc1ccc(-c2cc(C(=O)Nc3ccc(S(=O)(=O)N4CCOCC4)cc3)[nH]n2)c(O)c1C	920 nM
O=C(Nc1cccc(CN2CCCN(Cc3ccc4c(c3)OCO4)CC2)c1)c1ccc2ccccc2c1	1050 nM
COc1cc(CCN(C)Cc2ccc(OC)c(OC)c2)ccc1NC(=O)c1cccc2c(O)c3cccc(F)c3nc12	203 nM
Clc1ccc(CNCCCCCCNCc2ccc(Cl)cc2)cc1	845 nM
COc1cc2nc(N3CCC(CNC(=O)/C=C/c4ccccc4F)CC3)nc(N)c2cc1OC	581 nM
Cc1nc(-c2nc(N3CCC(O)CC3)ncc2-c2ccsc2)sc1C	939 nM
Cc1cc2cc(-c3ccc(CN)cc3)ccc2nc1N	1130 nM
Oc1cc(NC[C@@H]2CCC[C@@H]2NCc2ccc(Cl)c(Cl)c2)nc2ccccc12	602 nM
COc1ccc(Nc2nccc(NCCNC(=O)c3cc4ccccc4s3)n2)cc1	1020 nM
CC1CCCCN1S(=O)(=O)c1ccc(NC(=O)c2cc(-c3ccccc3O)n[nH]2)cc1 (stereo not given)	756 nM
COc1ccccc1CCNc1nc(C)cc(N[C@@H](CC(C)C)C(=O)NCc2cccs2)n1	793 nM
COc1cc2nc(Nc3ccc4c(ccn4Cc4ccccc4)c3)nc(Nc3ccc4c(ccn4Cc4ccccc4)c3)c2cc1OC	647 nM
ON=C(c1nc2ccccc2[nH]1)c1nc2ccccc2[nH]1	1090 nM
CCOc1ccc(/C=C/C(=O)Nc2cccc3c2CCN(C)C3)cc1	1110 nM
Cc1noc(C)c1-c1ccc2c(Nc3ccccc3C(C)(C)C)c(C(=O)NCc3ccc(C(F)(F)F)cc3)cnc2c1	762 nM

SMILES	XC50
O=C(Nc1ccc(Cl)c(Cl)c1)N1CCC(NCc2cccc([N+](=O)[O-])c2)CC1	763 nM
COc1ccc2nccc([C@@H](O)CN3CCC(NC(=O)c4ccc(Oc5ccccc5)cc4)CC3)c2c1	1380 nM
CNC(=N)c1ccc(NC(=O)c2ccc(C(=O)Nc3ccc(C(=N)NC)cc3)cc2)cc1	47.1 nM
CCCn1c(Sc2ccc(C#N)c([N+](=O)[O-])c2)nnc1-c1ccc(N(C)C)cc1	125 nM
O=C(Nc1ccccc1Oc1ccccc1)NC1CCN(c2ccnc3cc(Cl)ccc23)C1 (stereo not given)	167 nM
CCCCCCN1CCC(NCc2cccc([N+](=O)[O-])c2)CC1	668 nM
C[C@H](Cc1ccc(OCCCCCCOc2ccc(C[C@@H](C)N[C@H](C)c3ccccc3)cc2)cc1)NC[C@H](O)c1cccc(Cl)c1	241 nM
CCc1cn(C)c2c(N3CCCC3=O)cc(C(=O)N[C@@H](Cc3ccccc3)[C@H](O)CNC(C)(C)c3cccc(C(F)(F)F)c3)cc12	106 nM
O=c1[nH]ccc2nc(N[C@@H]3CCNC3)nc(Nc3cc(Cl)cc(Cl)c3)c12	738 nM
COc1cccc(-c2cccc(NC(=O)C3CCN(Cc4ccc(O)cc4)CC3)c2)c1	1030 nM
COc1ccc(CCn2c(=N)c(C(=O)NCc3cccnc3)cc3c(=O)n4ccccc4nc32)cc1	883 nM
CCCCCCC(C)c1cc(O)c2c(c1)OC(=O)CC2(CC)c1ccccn1 (stereo not given)	335 nM
CCOC(=O)c1ccc(OCCOc2ccccc2)cc1	367 nM
Cc1cc(N2CCCN(CC3CCCCC3)CC2)nc(Nc2ccc(Br)cc2)n1	943 nM
O=C(O[C@H]1CN[C@H](C#Cc2cc3ncnc(Nc4ccc5c(ccn5S(=O)(=O)c5cccs5)c4)c3s2)C1)N1CCOCC1	1100 nM
CN1CCC(c2nc(N)no2)C1 (stereo not given)	975 nM
COc1ccc(-c2ccc(CN(C)C3CCC(NC(=O)c4cc5ccccc5[nH]4)CC3)cc2)cn1 (stereo not given)	871 nM
CC(=O)N1N=C(c2[nH]c3ccc(Br)cc3c2C)OC1c1ccccc1 (stereo not given)	777 nM
S=C(NCC1CCCCC1)NC1CCC(CN2CCC(c3c[nH]c4ccccc34)CC2)CC1 (stereo not given)	1110 nM
COc1ccc(NC(=O)[C@H](Cc2ccccc2)Nc2cc(C)nc(NCCc3ccccc3OC)n2)cc1	529 nM
O=C(NCC1Cc2cc(Oc3ccccc3)ccc2O1)c1ccc([N+](=O)[O-])o1 (stereo not given)	917 nM
c1ccc(Oc2cccc(Nc3ccnc4ccccc34)c2)cc1	1110 nM
CCCC1(NC[C@@H](O)[C@H](Cc2ccccc2)NC(=O)c2cc(NCC)cc(N3CCCCS3(=O)=O)c2)CCCC1	505 nM
Cc1ccc(C(=O)Nc2cc(S(=O)(=O)N3CCCC3)ccc2OCC(F)(F)F)cc1	851 nM

SMILES	XC50
O=C(Nc1cc(Cl)ccc1O)c1ccc(Oc2ccc(C(=O)Nc3cc(Cl)ccc3O)cc2)cc1	920 nM
CCCSc1nc2c(c(=O)n1CCc1ccccc1)C1(CCCC1)Cc1ccccc1-2	702 nM
O=C(Nc1cc(C(F)(F)F)cc(C(F)(F)F)c1)c1cc(Cl)ccc1O [IMD-0354]	1310 nM
CN1CCN(CCCCCNc2c3ccccc3nc3ccccc23)CC1	741 nM
CN1CCC(Oc2ccc(NC(=O)c3ccc4c(=O)n(Cc5ccccc5)cnc4c3)cc2Cl)CC1	954 nM
COc1ccc2nc3cc(Cl)ccc3c(NCCN3CCN(C)CC3)c2c1	124 nM
N#Cc1cc([N+](=O)[O-])ccc1-n1nc(-c2cccc(Cl)c2)n(Cc2ccco2)c1=S	196 nM
O=C(/C=C/c1cccs1)NCC(NCCCNc1cc(=O)c2ccccc2[nH]1)c1cc(Br)cc(Br)c1 (stereo not given)	888 nM
Cc1nc(C)c(-c2ccc(Sc3ccc(Cl)cc3)cc2)c(O)c1Br	138 nM
O=C(Nc1cccc(Cl)c1)N[C@H]1CCN(Cc2ccc(OCCCN3CCCCC3)cc2)C1	729 nM
CCOc1ccc(-c2nonc2NC(=O)c2ccc(OC)cc2)cc1OCC	822 nM
OC(CNCCc1ccccc1)Cn1c2ccc(Cl)cc2c2cc(Cl)ccc21 (stereo not given)	733 nM
Cc1cccc2nc(-c3cccc(-c4ccc(NC(=O)C(C)(C)c5ccccn5)cc4)c3)[nH]c12	685 nM
Cc1[nH]c(C)c(-c2ccc(Oc3ccc(O)cc3)cc2)c(=O)c1Cl	1040 nM
CC1CCCN(Cc2c(O)ccc3c(O)c(-c4nc5ccccc5s4)c(=N)oc23)C1 (stereo not given)	140 nM
Oc1cccc(Nc2nc(NCc3ccco3)c3ccccc3n2)c1	415 nM
CC(CCCCC(=O)Nc1ccc(C(F)(F)F)cc1)NCC(O)c1cccc(Cl)c1 (stereo not given)	282 nM
CN(c1ccc(NC(=O)Nc2cc(C(F)(F)F)ccc2F)cc1)c1ccnc(NCCN2CCCC2)n1	1150 nM
Fc1ccc2[nH]c(-c3cccc(-c4ccc(CN5CCC(CCN6CCCCC6)CC5)cc4)c3)nc2c1	142 nM
Cn1ccc(-c2cccc(Nc3ccnc4cc(-c5nccs5)ccc34)c2)n1	405 nM
Cc1cccc2c(/C=C/C(=O)NC3CCC(CCN4CCc5ccc(C#N)cc5CC4)CC3)c[nH]c12 (stereo not given)	1220 nM
CC(C)COc1ccc(Cl)cc1Cc1nc(-c2nc3cccc(CN4CCN(C)CC4)c3[nH]2)cs1	1330 nM

Reference: ChEMBL document CHEMBL1157539, “Thousands of chemical starting points for antimalarial lead identification” (Nature, 2010)
